Assay: Cytotoxicity, K562 cell growth inhibition (Cell Counting Kit-8 / WST-8)
Type: cell-based
Conditions: human; K562 cells; 6-48 hrs incubation; WST-8 absorbance at 450 nm; concentration inhibiting the cell growth by 50%
Description: K562 cells (American Type Culture Collection) were cultured in a culture medium containing 10% (v/v) fetal calf serum (FCS) (manufactures by Sigma) to logarithmic phase. The cells were seeded in 96-well microtiter plate at a density of 5000 cells/well in 100 μL cell culture medium and incubated at 37° C. and 5% CO2 in a humidified incubator overnight. The test compounds of various concentrations were added in a well at 10 fold concentration in 1/10 volume of medium without FCS. After 6-48 hrs incubation at 37° C. in the CO2 incubator, 10 μL solution of the viable cell counting reagent, Cell counting Kit-8 (5 mmol/L WST-8, 0.2 mmol/L 1-Methoxy PMS, 150 mmol/L NaCl) (manufactured by Dojindo) was added to each well, and reacted for 1 to 4 hours in the CO2 incubator. After the incubation, an absorbance of formazan, generated by reduction of WST-8 was determined at 450 nm using a microplate reader.
The assay readout is correlated with the viable cell numbers. Small values correspond to high inhibition and larger values to low inhibition of the cell growth. To determine IC50 values (i.e. the concentration inhibiting the cell growth by 50%) of the compounds of formula II, IV and V, several assays were made with a range of concentrations chosen empirically to give low, high and intermediate inhibition of the growth and determined using the curve fitting software.
IC50 values can be converted logarithmically to pIC50 values (−log IC50), in which higher values indicate exponentially greater potency. The IC50 value is not an absolute value but depends on experimental conditions e.g. concentrations employed.

Structure (SMILES)	IC50 [µM]
O=C(OCc1ccccc1)C1=CC(c2ccccc2)CC(O)(C(=O)OCc2ccccc2)O1 (stereo not drawn)	149
CCOC(=O)C1=CC(C2CCCCC2)CC(O)(C(=O)OCC)O1 (stereo not drawn)	58
CCOC(=O)C1=CC(c2ccc(Br)cc2)CC(O)(C(=O)OCC)O1 (stereo not drawn)	80
COC(=O)C1=CC(c2ccc([N+](=O)[O-])cc2)CC(O)(C(=O)OCc2ccccc2)O1 (stereo not drawn)	81
CCOC(=O)C1=CC(c2ccc([N+](=O)[O-])cc2)CC(Nc2ccc(OC)cc2)(C(=O)OCC)O1 (stereo not drawn)	12
CCOC(=O)C1=CC(c2ccc([N+](=O)[O-])cc2)CC(F)(C(=O)OCC)O1 (stereo not drawn)	11
CCOC(=O)C1=CC(c2ccc(Cl)cc2)CC(F)(C(=O)OCC)O1 (stereo not drawn)	52
CCOC(=O)C1=CC(c2ccc(Br)cc2)CC(F)(C(=O)OCC)O1 (stereo not drawn)	53
CCOC(=O)C1=CC(c2ccco2)CC(F)(C(=O)OCC)O1 (stereo not drawn)	135
CCOC(=O)C1=CC(c2ccc([N+](=O)[O-])cc2)CC(C(=O)OCC)=NN1 (stereo not drawn)	148
O=C(OCc1ccccc1)[C@]1(O)C[C@H](c2ccccc2)C[C@](O)(C(=O)OCc2ccccc2)[C@H]1[N+](=O)[O-]	54
COC(=O)[C@@]1(O)C[C@@H](c2ccc([N+](=O)[O-])cc2)C[C@@](O)(C(=O)OCc2ccccc2)[C@@H]1[N+](=O)[O-]	90
CCOC(=O)[C@]1(O)C[C@H](c2ccc(C(F)(F)F)cc2)C[C@](O)(C(=O)OCC)[C@H]1[N+](=O)[O-]	144
CCOC(=O)[C@]1(O)C[C@H](c2ccc(Br)cc2)C[C@](O)(C(=O)OCC)[C@H]1[N+](=O)[O-]	144
CCOC(=O)[C@]1(O)C[C@H](C2CCCCC2)C[C@](O)(C(=O)OCC)[C@H]1[N+](=O)[O-]	105
